According to paper PMC6409085, “Three odorant-binding proteins are involved in the behavioral response of Sogatella furcifera to rice plant volatiles” (PeerJ, 2019):
Values joined by “and” are separate entries in the source; they are usually repeats but may differ in a detail not shown here. Equal values may be shown once.

Legend:
SfurOBP1 = SfurOBP1 (Sogatella furcifera, UniProt V5T8N5); assay: biochemical; assay type: binding; conditions: for Fluorescence competitive binding assay, fluorescence intensity: OBP1, three replicate columns
Summary of the method: (§1)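 1-NPN displacement assay with odorant competitor at 2–20 µM; protein and probe both 2.0 µM at pH 7.4. Ki is calculated from IC50 using the protein/1-NPN dissociation constant.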

SfurOBP11 = SfurOBP11 (Sogatella furcifera, UniProt V5T6E3); assay: biochemical; assay type: binding
Summary of the method: as §1

SfurOBP2 = SfurOBP2 (Sogatella furcifera, UniProt V5T759); assay: biochemical; assay type: binding
Summary of the method: as §1

SfurOBP3 = SfurOBP3 (Sogatella furcifera, UniProt V5T818); assay: biochemical; assay type: binding; conditions: for Fluorescence competitive binding assay, fluorescence intensity: OBP3, three replicate columns
Summary of the method: as §1

S. furcifera adults = assay: Y-tube olfactometer behavioral trials; assay type: in vivo, Sogatella furcifera; conditions: odorant 50 µL/L vs hexane
Summary of the method: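 Single S. furcifera adults (2 days post-emergence, starved 0.5 h) chose between odorant (100 µL of 50 µL/L on filter paper) and hexane control in a glass Y-tube, charcoal-filtered humidified air 300 mL/min per arm, 25 ± 1 °C, 50% RH. Choice scored if insect passed half an arm and stayed >1 min within 10 min; 45 insects per compound, chi-squared test.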

Sequence of SfurOBP2 (V5T759 entry or part of it): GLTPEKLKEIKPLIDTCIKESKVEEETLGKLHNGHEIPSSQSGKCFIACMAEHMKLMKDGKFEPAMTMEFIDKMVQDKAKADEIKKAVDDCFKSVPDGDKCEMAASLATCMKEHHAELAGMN
Sequence of SfurOBP3 (V5T818 entry or part of it): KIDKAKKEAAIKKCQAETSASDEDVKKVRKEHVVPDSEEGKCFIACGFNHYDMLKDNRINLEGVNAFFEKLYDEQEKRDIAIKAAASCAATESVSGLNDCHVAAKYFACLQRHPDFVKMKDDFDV
Sequence of SfurOBP1 (V5T8N5 entry or part of it): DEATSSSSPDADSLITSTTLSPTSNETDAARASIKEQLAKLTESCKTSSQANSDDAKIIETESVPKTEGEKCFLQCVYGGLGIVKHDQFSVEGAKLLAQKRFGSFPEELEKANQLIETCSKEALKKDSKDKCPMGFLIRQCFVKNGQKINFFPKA
Sequence of SfurOBP11 (V5T6E3 entry or part of it): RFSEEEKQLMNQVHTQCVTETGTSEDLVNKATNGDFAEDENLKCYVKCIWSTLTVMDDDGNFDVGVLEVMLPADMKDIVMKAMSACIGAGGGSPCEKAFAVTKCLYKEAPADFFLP

For `CCCCCCCCCCC` [n-hendecane], the “Fluorescence competitive binding assay, fluorescence intensity” value (SfurOBP1; ligand concentration 2 (μM)) was 8889 and 7931 and 9847, the “Fluorescence competitive binding assay, fluorescence intensity” value (SfurOBP1; ligand concentration 4 (μM)) was 9154 and 8432 and 9875 and the “Fluorescence competitive binding assay, fluorescence intensity” value (SfurOBP1; ligand concentration 6 (μM)) was 7581 and 8720 and 8173. For the same compound, the “Fluorescence competitive binding assay, fluorescence intensity” value (SfurOBP1; ligand concentration 8 (μM)) was 8276 and 7641 and 8381, the “Fluorescence competitive binding assay, fluorescence intensity” value (SfurOBP1; ligand concentration 10 (μM)) was 7644 and 8267 and 8233 and the “Fluorescence competitive binding assay, fluorescence intensity” value (SfurOBP1; ligand concentration 12 (μM)) was 8969 and 10263 and 9250. The “Fluorescence competitive binding assay, fluorescence intensity” value (SfurOBP1; ligand concentration 14 (μM)) was 8392 and 9042 and 10874, the “Fluorescence competitive binding assay, fluorescence intensity” value (SfurOBP1; ligand concentration 16 (μM)) was 8482 and 9466 and 8778 and the “Fluorescence competitive binding assay, fluorescence intensity” value (SfurOBP1; ligand concentration 18 (μM)) was 11781 and 12671 and 12573. For the same compound, the “Fluorescence competitive binding assay, fluorescence intensity” value (SfurOBP1; ligand concentration 20 (μM)) was 13259 and 11367 and 9255, the IC50 (SfurOBP1; SfurOBP1, protein and 1-NPN both 2.0 µM, competitor 2-20 µM, read-out: IC50) was > 20 µM and the IC50 (SfurOBP11; SfurOBP11, protein and 1-NPN both 2.0 µM, competitor 2-20 µM, read-out: IC50) was > 20 µM. The “Fluorescence intensity, fluorescence competitive binding assay, OBP11” value (from here on “Fluorescence intensity … OBP11”) (SfurOBP11; ligand concentration 2, replicate 1) was 27436, the “Fluorescence intensity … OBP11” value (SfurOBP11; ligand concentration 2, replicate 2) was 25403 and the “Fluorescence intensity … OBP11” value (SfurOBP11; ligand concentration 2, replicate 3) was 32188. For the same compound, the “Fluorescence intensity … OBP11” value (SfurOBP11; ligand concentration 4, replicate 1) was 29413, the “Fluorescence intensity … OBP11” value (SfurOBP11; ligand concentration 4, replicate 2) was 28026 and the “Fluorescence intensity … OBP11” value (SfurOBP11; ligand concentration 4, replicate 3) was 33638. The “Fluorescence intensity … OBP11” value (SfurOBP11; ligand concentration 6, replicate 1) was 33021, the “Fluorescence intensity … OBP11” value (SfurOBP11; ligand concentration 6, replicate 2) was 33682 and the “Fluorescence intensity … OBP11” value (SfurOBP11; ligand concentration 6, replicate 3) was 34343. The “Fluorescence intensity … OBP11” value (SfurOBP11; ligand concentration 8, replicate 1) was 31948, the “Fluorescence intensity … OBP11” value (SfurOBP11; ligand concentration 8, replicate 2) was 30771 and the “Fluorescence intensity … OBP11” value (SfurOBP11; ligand concentration 8, replicate 3) was 33124. The “Fluorescence intensity … OBP11” value (SfurOBP11; ligand concentration 10, replicate 1) was 30756, the “Fluorescence intensity … OBP11” value (SfurOBP11; ligand concentration 10, replicate 2) was 30287 and the “Fluorescence intensity … OBP11” value (SfurOBP11; ligand concentration 10, replicate 3) was 30522. The “Fluorescence intensity … OBP11” value (SfurOBP11; ligand concentration 12, replicate 1) was 29262, the “Fluorescence intensity … OBP11” value (SfurOBP11; ligand concentration 12, replicate 2) was 31182 and the “Fluorescence intensity … OBP11” value (SfurOBP11; ligand concentration 12, replicate 3) was 32197. The “Fluorescence intensity … OBP11” value (SfurOBP11; ligand concentration 14, replicate 1) was 28697, the “Fluorescence intensity … OBP11” value (SfurOBP11; ligand concentration 14, replicate 2) was 28336 and the “Fluorescence intensity … OBP11” value (SfurOBP11; ligand concentration 14, replicate 3) was 31391. For the same compound, the “Fluorescence intensity … OBP11” value (SfurOBP11; ligand concentration 16, replicate 1) was 26235, the “Fluorescence intensity … OBP11” value (SfurOBP11; ligand concentration 16, replicate 2) was 27774 and the “Fluorescence intensity … OBP11” value (SfurOBP11; ligand concentration 16, replicate 3) was 27525. For the same compound, the “Fluorescence intensity … OBP11” value (SfurOBP11; ligand concentration 18, replicate 1) was 34849, the “Fluorescence intensity … OBP11” value (SfurOBP11; ligand concentration 18, replicate 2) was 34941 and the “Fluorescence intensity … OBP11” value (SfurOBP11; ligand concentration 18, replicate 3) was 33114. The “Fluorescence intensity … OBP11” value (SfurOBP11; ligand concentration 20, replicate 1) was 29304, the “Fluorescence intensity … OBP11” value (SfurOBP11; ligand concentration 20, replicate 2) was 30167 and the “Fluorescence intensity … OBP11” value (SfurOBP11; ligand concentration 20, replicate 3) was 28561. The IC50 (SfurOBP2; SfurOBP2, protein and 1-NPN both 2.0 µM, competitor 2-20 µM, read-out: IC50) was > 20 µM, the “Fluorescence competitive binding assay, OBP2 (raw fluorescence reading)” value (SfurOBP2; ligand concentration 2 (unit not given), replicate column 1 of 3) was 13775 and the “Fluorescence competitive binding assay, OBP2 (raw fluorescence reading)” value (SfurOBP2; ligand concentration 2 (unit not given), replicate column 2 of 3) was 13769. For the same compound, the “Fluorescence competitive binding assay, OBP2 (raw fluorescence reading)” value (SfurOBP2; ligand concentration 2 (unit not given), replicate column 3 of 3) was 13734, the “Fluorescence competitive binding assay, OBP2 (raw fluorescence reading)” value (SfurOBP2; ligand concentration 4 (unit not given), replicate column 1 of 3) was 13631 and the “Fluorescence competitive binding assay, OBP2 (raw fluorescence reading)” value (SfurOBP2; ligand concentration 4 (unit not given), replicate column 2 of 3) was 13783. For the same compound, the “Fluorescence competitive binding assay, OBP2 (raw fluorescence reading)” value (SfurOBP2; ligand concentration 4 (unit not given), replicate column 3 of 3) was 13500, the “Fluorescence competitive binding assay, OBP2 (raw fluorescence reading)” value (SfurOBP2; ligand concentration 6 (unit not given), replicate column 1 of 3) was 14480 and the “Fluorescence competitive binding assay, OBP2 (raw fluorescence reading)” value (SfurOBP2; ligand concentration 6 (unit not given), replicate column 2 of 3) was 14028. The “Fluorescence competitive binding assay, OBP2 (raw fluorescence reading)” value (SfurOBP2; ligand concentration 6 (unit not given), replicate column 3 of 3) was 13866, the “Fluorescence competitive binding assay, OBP2 (raw fluorescence reading)” value (SfurOBP2; ligand concentration 8 (unit not given), replicate column 1 of 3) was 14049 and the “Fluorescence competitive binding assay, OBP2 (raw fluorescence reading)” value (SfurOBP2; ligand concentration 8 (unit not given), replicate column 2 of 3) was 14101. For the same compound, the “Fluorescence competitive binding assay, OBP2 (raw fluorescence reading)” value (SfurOBP2; ligand concentration 8 (unit not given), replicate column 3 of 3) was 13901, the “Fluorescence competitive binding assay, OBP2 (raw fluorescence reading)” value (SfurOBP2; ligand concentration 10 (unit not given), replicate column 1 of 3) was 14583 and the “Fluorescence competitive binding assay, OBP2 (raw fluorescence reading)” value (SfurOBP2; ligand concentration 10 (unit not given), replicate column 2 of 3) was 14099. For the same compound, the “Fluorescence competitive binding assay, OBP2 (raw fluorescence reading)” value (SfurOBP2; ligand concentration 10 (unit not given), replicate column 3 of 3) was 14077, the “Fluorescence competitive binding assay, OBP2 (raw fluorescence reading)” value (SfurOBP2; ligand concentration 12 (unit not given), replicate column 1 of 3) was 12819 and the “Fluorescence competitive binding assay, OBP2 (raw fluorescence reading)” value (SfurOBP2; ligand concentration 12 (unit not given), replicate column 2 of 3) was 13447. For the same compound, the “Fluorescence competitive binding assay, OBP2 (raw fluorescence reading)” value (SfurOBP2; ligand concentration 12 (unit not given), replicate column 3 of 3) was 13211, the “Fluorescence competitive binding assay, OBP2 (raw fluorescence reading)” value (SfurOBP2; ligand concentration 14 (unit not given), replicate column 1 of 3) was 12583 and the “Fluorescence competitive binding assay, OBP2 (raw fluorescence reading)” value (SfurOBP2; ligand concentration 14 (unit not given), replicate column 2 of 3) was 13279. The “Fluorescence competitive binding assay, OBP2 (raw fluorescence reading)” value (SfurOBP2; ligand concentration 14 (unit not given), replicate column 3 of 3) was 13266, the “Fluorescence competitive binding assay, OBP2 (raw fluorescence reading)” value (SfurOBP2; ligand concentration 16 (unit not given), replicate column 1 of 3) was 12291 and the “Fluorescence competitive binding assay, OBP2 (raw fluorescence reading)” value (SfurOBP2; ligand concentration 16 (unit not given), replicate column 2 of 3) was 12273. For the same compound, the “Fluorescence competitive binding assay, OBP2 (raw fluorescence reading)” value (SfurOBP2; ligand concentration 16 (unit not given), replicate column 3 of 3) was 12414, the “Fluorescence competitive binding assay, OBP2 (raw fluorescence reading)” value (SfurOBP2; ligand concentration 18 (unit not given), replicate column 1 of 3) was 15293 and the “Fluorescence competitive binding assay, OBP2 (raw fluorescence reading)” value (SfurOBP2; ligand concentration 18 (unit not given), replicate column 2 of 3) was 14599. The “Fluorescence competitive binding assay, OBP2 (raw fluorescence reading)” value (SfurOBP2; ligand concentration 18 (unit not given), replicate column 3 of 3) was 14178, the “Fluorescence competitive binding assay, OBP2 (raw fluorescence reading)” value (SfurOBP2; ligand concentration 20 (unit not given), replicate column 1 of 3) was 14271 and the “Fluorescence competitive binding assay, OBP2 (raw fluorescence reading)” value (SfurOBP2; ligand concentration 20 (unit not given), replicate column 2 of 3) was 14231. For the same compound, the “Fluorescence competitive binding assay, OBP2 (raw fluorescence reading)” value (SfurOBP2; ligand concentration 20 (unit not given), replicate column 3 of 3) was 15281, the “Fluorescence competitive binding assay, fluorescence intensity” value (SfurOBP3; ligand concentration 2) was 74152 and 72365 and 72059 and the “Fluorescence competitive binding assay, fluorescence intensity” value (SfurOBP3; ligand concentration 4) was 77402 and 81799 and 77600. For the same compound, the “Fluorescence competitive binding assay, fluorescence intensity” value (SfurOBP3; ligand concentration 6) was 79862 and 82180 and 72867, the “Fluorescence competitive binding assay, fluorescence intensity” value (SfurOBP3; ligand concentration 8) was 73959 and 76680 and 68556 and the “Fluorescence competitive binding assay, fluorescence intensity” value (SfurOBP3; ligand concentration 10) was 74938 and 80983 and 75877. The “Fluorescence competitive binding assay, fluorescence intensity” value (SfurOBP3; ligand concentration 12) was 71318 and 75448 and 71285, the “Fluorescence competitive binding assay, fluorescence intensity” value (SfurOBP3; ligand concentration 14) was 70629 and 72724 and 74851 and the “Fluorescence competitive binding assay, fluorescence intensity” value (SfurOBP3; ligand concentration 16) was 63137 and 66714 and 63682. For the same compound, the “Fluorescence competitive binding assay, fluorescence intensity” value (SfurOBP3; ligand concentration 18) was 73714 and 82385 and 76604, the “Fluorescence competitive binding assay, fluorescence intensity” value (SfurOBP3; ligand concentration 20) was 75970 and 66519 and 62854 and the IC50 (SfurOBP3; SfurOBP3, protein and 1-NPN both 2.0 µM, competitor 2-20 µM, read-out: IC50) was > 20 µM. For the same compound, the “behavioral response of S. furcifera (in words)” value (S. furcifera adults) was “strongly attracted”, the “number of insects choosing hexane arm” value (S. furcifera adults; adults) was 8 and the “number of insects choosing volatilies arm” value (S. furcifera adults; adults) was 18. For the same compound, the “number of insects failed (no choice)” value (S. furcifera adults; adults) was 14.
